The experiment relates to BDF1 mice, Friend leukemia sc, tumor weight T/C. The experiment is described as follows: NCI In Vivo Anticancer Drug Screen. Data for tumor model Friend Virus Leukemia (Solid) (subcutaneous) in B6D2F1 (BDF1) mice. Conditions: endpoint: mean tumor weight, higher = larger tumour. The procedure: The antitumor activity of compounds was measured in mice bearing transplantable tumors. Survival or tumor size were measured and the results are expressed as the measurement made in the treated group (T) divided by the measurement made in the vehicle treated control group (C). The tumor model used in this assay is Friend Virus Leukemia (Solid) (subcutaneous) in B6D2F1 (BDF1) mice

[1] abbreviates: dose: 0.5 mg/kg/injection, schedule: Q01DX011 (ip), vehicle: carboxymethylcellulose (CMC).
[2] abbreviates: dose: 50.0 mg/kg/injection, schedule: Q01DX011 (ip), vehicle: carboxymethylcellulose (CMC).
Where [3] appears, read: dose: 100.0 mg/kg/injection, schedule: Q01DX011 (ip), vehicle: carboxymethylcellulose (CMC).
Where [4] appears, read: dose: 1000.0 mg/kg/injection, schedule: Q01DX011 (ip), vehicle: carboxymethylcellulose (CMC).

Several values for one entry are separate records, joined by “and”; a condition that tells them apart may be missing. Equal values may be shown once. Inconclusive results are not listed.

Regarding `CN(Cc1cnc2nc(N)nc(N)c2n1)c1ccc(C(=O)N[C@@H](CCC(=O)O)C(=O)O)cc1`, the T/C reads like this: (dose: 0.37 mg/kg/injection, schedule: Q01DX011 (ip), vehicle: saline) 68 % of control; under setting [1], 44 % of control; (dose: 0.75 mg/kg/injection, schedule: Q01DX011 (ip), vehicle: saline) 91 % of control; (dose: 0.8 mg/kg/injection, schedule: Q01DX011 (ip), vehicle: carboxymethylcellulose (CMC)) 71 % of control and 88 % of control; (dose: 1.4 mg/kg/injection, schedule: Q01DX011 (ip), vehicle: carboxymethylcellulose (CMC)) 36 % of control; (dose: 1.5 mg/kg/injection, schedule: Q01DX011 (ip), vehicle: carboxymethylcellulose (CMC)) 16 % of control. Besides, where the note is “dose: 1.5 mg/kg/injection, schedule: Q01DX011 (ip), vehicle: saline”, the T/C is 49 % of control.
`CCc1ccccc1N1CCN(C(=O)c2cc(OC)c(OC)c(OC)c2)CC1`: the T/C (dose: 0.25 mg/kg/injection, schedule: Q01DX011 (ip), vehicle: carboxymethylcellulose (CMC)) was 64 % of control; the T/C under setting [1] was 73 % of control; the T/C (dose: 1.0 mg/kg/injection, schedule: Q01DX011 (ip), vehicle: carboxymethylcellulose (CMC)) was 64 % of control; the T/C (dose: 2.0 mg/kg/injection, schedule: Q01DX011 (ip), vehicle: carboxymethylcellulose (CMC)) was 53 % of control and 35 % of control; the T/C (dose: 4.0 mg/kg/injection, schedule: Q01DX011 (ip), vehicle: carboxymethylcellulose (CMC)) was 67 % of control; the T/C (dose: 8.0 mg/kg/injection, schedule: Q01DX011 (ip), vehicle: carboxymethylcellulose (CMC)) is 40 % of control. Also, the T/C by setting is: (dose: 16.0 mg/kg/injection, schedule: Q01DX011 (ip), vehicle: carboxymethylcellulose (CMC)) 42 % of control; (dose: 31.0 mg/kg/injection, schedule: Q01DX011 (ip), vehicle: other) 11 % of control.
On to `CCOC(=O)NP(=O)(N1CC1(C)C)N1CC1(C)C` (stereo unspecified), for which the T/C by setting is: (dose: 125.0 mg/kg/injection, schedule: Q01DX011 (ip), vehicle: saline) 73 % of control; (dose: 187.0 mg/kg/injection, schedule: Q01DX011 (ip), vehicle: saline) 101 % of control; (dose: 250.0 mg/kg/injection, schedule: Q01DX011 (ip), vehicle: saline) 65 % of control; (dose: 375.0 mg/kg/injection, schedule: Q01DX011 (ip), vehicle: saline) 24 % of control.
In the case of `NC(=O)/C=C/C(=O)O` (tested in a mixture with another compound), the T/C runs as follows: (dose: 7.5 mg/kg/injection, schedule: Q#A X022 (ip), vehicle: carboxymethylcellulose (CMC)) 78 % of control; (dose: 15.5 mg/kg/injection, schedule: Q#A X022 (ip), vehicle: carboxymethylcellulose (CMC)) 66 % of control.
Regarding `C=CC(CN1CC1)OC(C)=O` (stereo unspecified), the T/C by setting is: (dose: 1.2 mg/kg/injection, schedule: Q01DX011 (ip), vehicle: carboxymethylcellulose (CMC)) 70 % of control; (dose: 2.4 mg/kg/injection, schedule: Q01DX011 (ip), vehicle: carboxymethylcellulose (CMC)) 89 % of control; (dose: 2.5 mg/kg/injection, schedule: Q01DX011 (ip), vehicle: saline) 50 % of control; (dose: 4.8 mg/kg/injection, schedule: Q01DX011 (ip), vehicle: carboxymethylcellulose (CMC)) 36 % of control; (dose: 5.0 mg/kg/injection, schedule: Q01DX011 (ip), vehicle: saline) 31 % of control; (dose: 7.5 mg/kg/injection, schedule: Q01DX011 (ip), vehicle: saline) 26 % of control. Besides, the T/C (dose: 9.9 mg/kg/injection, schedule: Q01DX011 (ip), vehicle: saline) was 3 % of control.
Take `O=C(N[C@H](CO)[C@H](O)c1ccc([N+](=O)[O-])cc1)C(Cl)Cl`: the T/C was 105 % of control (dose: 47.0 mg/kg/injection, schedule: Q01DX011 (ip), vehicle: carboxymethylcellulose (CMC)); 98 % of control (dose: 95.0 mg/kg/injection, schedule: Q01DX011 (ip), vehicle: carboxymethylcellulose (CMC)); 77 % of control (dose: 191.0 mg/kg/injection, schedule: Q01DX011 (ip), vehicle: carboxymethylcellulose (CMC)); 108 % of control (dose: 383.0 mg/kg/injection, schedule: Q01DX011 (ip), vehicle: carboxymethylcellulose (CMC)).
`CC/C(=C(\CC)c1ccc(OC)cc1)c1ccc(O)cc1`: the T/C (dose: 3.0 mg/kg/injection, schedule: Q01DX011 (sc), vehicle: steriod suspending solution) was 69 % of control; the T/C (dose: 7.0 mg/kg/injection, schedule: Q01DX011 (sc), vehicle: steriod suspending solution) is 101 % of control; the T/C (dose: 15.0 mg/kg/injection, schedule: Q01DX011 (sc), vehicle: steriod suspending solution) was 79 % of control; the T/C (dose: 30.0 mg/kg/injection, schedule: Q01DX011 (sc), vehicle: steriod suspending solution) was 55 % of control; the T/C (dose: 240.0 mg/kg/injection, schedule: Q01DX011 (sc), vehicle: steriod suspending solution) was 65 % of control; the T/C (dose: 480.0 mg/kg/injection, schedule: Q01DX011 (sc), vehicle: steriod suspending solution) is 63 % of control. Moreover, the T/C by setting is: (dose: 960.0 mg/kg/injection, schedule: Q01DX011 (sc), vehicle: steriod suspending solution) 62 % of control; (dose: 1920.0 mg/kg/injection, schedule: Q01DX011 (sc), vehicle: steriod suspending solution) 63 % of control.
Turning to `CCCCNc1ncnc2c1cnn2C`, the T/C by setting is: (dose: 4.0 mg/kg/injection, schedule: Q01DX011 (ip), vehicle: saline) 150 % of control; (dose: 16.0 mg/kg/injection, schedule: Q01DX011 (ip), vehicle: saline) 117 % of control; (dose: 31.0 mg/kg/injection, schedule: Q01DX011 (ip), vehicle: saline) 84 % of control.
As to `O=C1C=Cc2ccc(O)cc2C1=O`, the T/C (dose: 1.25 mg/kg/injection, schedule: Q01DX011 (ip), vehicle: carboxymethylcellulose (CMC)) was 108 % of control; the T/C (dose: 2.5 mg/kg/injection, schedule: Q01DX011 (ip), vehicle: carboxymethylcellulose (CMC)) was 83 % of control; the T/C (dose: 10.0 mg/kg/injection, schedule: Q01DX011 (ip), vehicle: carboxymethylcellulose (CMC)) was 102 % of control.
On to `C[C@]12C=CC(=O)C=C1CC[C@@H]1[C@@H]2C(=O)C[C@@]2(C)[C@H]1CC[C@]2(O)C(=O)CO`, for which the T/C was 92 % of control (dose: 10.0 mg/kg/injection, schedule: Q01DX011 (sc), vehicle: steriod suspending solution); 27 % of control (dose: 20.0 mg/kg/injection, schedule: Q01DX011 (sc), vehicle: steriod suspending solution); 23 % of control (dose: 25.0 mg/kg/injection, schedule: Q01DX011 (sc), vehicle: steriod suspending solution); 11 % of control (dose: 50.0 mg/kg/injection, schedule: Q01DX011 (sc), vehicle: steriod suspending solution); 9 % of control (dose: 100.0 mg/kg/injection, schedule: Q01DX011 (sc), vehicle: steriod suspending solution); 11 % of control (dose: 200.0 mg/kg/injection, schedule: Q01DX011 (sc), vehicle: steriod suspending solution).
As for `O=[n+]1c2c(n([O-])c3ccccc31)-c1cccc3cccc-2c13`, the T/C (dose: 25.0 mg/kg/injection, schedule: Q01DX011 (ip), vehicle: carboxymethylcellulose (CMC)) was 87 % of control; the T/C under setting [2] is 55 % of control; the T/C under setting [3] is 43 % of control.
For the molecule `CN(C)C1C(=O)C(C(N)=O)=C(O)C2(O)C(=O)C3=C(O)c4c(O)cccc4C(C)(O)C3C(O)C12` (stereo unspecified), the T/C is, setting by setting: (dose: 19.5 mg/kg/injection, schedule: Q01DX011 (ip), vehicle: carboxymethylcellulose (CMC)) 94 % of control; (dose: 78.0 mg/kg/injection, schedule: Q01DX011 (ip), vehicle: carboxymethylcellulose (CMC)) 115 % of control; (dose: 156.0 mg/kg/injection, schedule: Q01DX011 (ip), vehicle: carboxymethylcellulose (CMC)) 95 % of control.
Turning to `C[C@H](N)C(=O)N[C@@H]1[C@H]2C(=C(O)C[C@@H](O)[C@@H]2O)C(=O)O[C@@H]1C`, the T/C under setting [3] was 43 % of control; the T/C (dose: 200.0 mg/kg/injection, schedule: Q01DX011 (ip), vehicle: carboxymethylcellulose (CMC)) was 48 % of control; the T/C under setting [4] is 17 % of control.
`O=CCC(O)C(O)C(O)CO` (stereo unspecified): the T/C reads like this: (dose: 125.0 mg/kg/injection, schedule: Q01DX011 (ip), vehicle: carboxymethylcellulose (CMC)) 89 % of control; (dose: 250.0 mg/kg/injection, schedule: Q01DX011 (ip), vehicle: carboxymethylcellulose (CMC)) 83 % of control; (dose: 500.0 mg/kg/injection, schedule: Q01DX011 (ip), vehicle: carboxymethylcellulose (CMC)) 48 % of control; under setting [4], 63 % of control.
On to `O=C(O)c1ccc(-c2ccccc2)cc1`, for which the T/C under setting [2] was 103 % of control.

(Values after PubChem BioAssay AID228 (DTP/NCI, 2004).)
